Five compounds from patent publication US5079257A, “Indoloquinone compounds” (priority 1986, dated 1992) can be followed below.

≈ marks a conversion by molar mass, not a printed value. Read-outs that look alike come from different tables or passages of the source. Bounds are passed on as bounds.

Series [1] has as its system R-1 cells (Rhabdomyosarcoma Cells). Kind of series: R-1 activity (bioliquid assay), cytotoxicity. The class given is cell-based. Particulars: Rhabdomyosarcoma cell. From the text:
The indoloquinones II (formula II) have been tested in respect of their cytotoxic activity against L1210 cells and R-1 cells (Rhabdomyosarcoma Cells) in a bioliquid assay at the department of oncology of the Free University of Amsterdam (Table I). […] (Table II). Eight indoloquinones (E.O. 1, E.O. 2, E.O. 4, E.O. 4A, E.O. 8, E.O. 9, E.O. 33 and E.O. 35) have been tested in a panel of five human tumour lines (TNO Rijswijk; Table III).
For the determination of the R-1 activity, Rhabdomyosarcoma cells were brought into Falcon multiwells (growth area: 9.6 cm^2) (~10^6 cells per dish) containing 3 ml of Dulbecco's medium supplemented with 10% Foeto Calf Serum (FCS). […] Thereupon the drug solution was removed and the cells were covered with fresh medium. After 48 hours the cells were trypsinized and counted on a Sysmex microcell counter (CC110).
(§1) The in vitro L1210 and R-1 activities of the indoloquinones (formula III), were also determined in the bioliquid assays as described above.

For a further series, the system named is L1210 cells. Put plainly: L1210 activity (bioliquid assay), cytotoxicity. As to conditions: for IC50: Mus musculus. It is filed as cell-based.
Excerpt: The indoloquinones II (formula II) have been tested in respect of their cytotoxic activity against L1210 cells and R-1 cells (Rhabdomyosarcoma Cells) in a bioliquid assay at the department of oncology of the Free University of Amsterdam (Table I). In addition to this seven compounds (E.O. 1, E.O. 2, E.O. 4, E.O. 7, E.O. 9, E.O. 16 and E.O. 17) have been tested on L1210 activity in a clonogenic assay at TNO, Rijswijk. Further, the lowest active doses of the compounds E.O. 1, E.O. 2, E.O. 4 and E.O. 9 have been determined at TNO Rijswijk, according to the method described by Lamberts et al. [Oncology, 40, 301 (1983)]. (Table II). Eight indoloquinones (E.O. 1, E.O. 2, E.O. 4, E.O. 4A, E.O. 8, E.O. 9, E.O. 33 and E.O. 35) have been tested in a panel of five human tumour lines (TNO Rijswijk; Table III). From the latter group three indoloquinones (E.O. 1, E.O. 4 and E.O. 9) have been selected for a cytotoxicity study, involving five slowly growing human tumour lines (University of Freiburg; Table IV).
For this purpose, L1210 cells were grown, as suspension, in Falcon multi-wells (growth area: 9.6 cm^2) using RPMI supplemented with 15% FCS and 2-mercapto-ethanol (60 μmol) as medium. In this medium, the cells were continuously incubated with the compound to be tested at 37° C. in an atmosphere of 5% CO2 in humidified air for 48 hours. Thereupon they were counted on a Sysmex microcell counter (CC110).
as §1

The nature of series [2]: Half-wave reduction potentials / polarography (University of Utrecht). As to conditions: for half-wave potential E1.2, wave I: pH = 8 vs Ag/AgCl; for E1/2, halve wave reduction potential: Table IA, only the first (quinone) reduction potential. The class given is physicochemical. From the text:
*The halve wave reduction potentials (E1/2) have been determined at the
Pharmaceutical Laboratory of University of Utrecht. Only the first
(quinone) reduction potential has been given.
Additional evidence for the occurrence of a bioreductive activation mechanism during the cytotoxic action of indoloquinones (II) was obtained via electrochemical studies, which have been carried out at the Pharmaceutical Laboratory of the University of Utrecht. […]

Where [3] appears, read: Table I, bioliquid assay, read-out: ID-50 R-1.
Setting [4] is: L1210, Table I, bioliquid assay, 48 hours, read-out: ID-50 L1210.
The mark [5] stands for this setting: read-out: ID-50 R-1, Table IA, para-indoloquinone diesters.
Setting [6] is: L1210, 48 h, read-out: ID-50 L1210, Table IA, para-indoloquinone diesters.

`Cn1c(/C=C/CO)c(CO)c2c1C(=O)C=C(N1CCC(O)CC1)C2=O` [E.O. 11, 3-Hydroxymethyl-5-(4-hydroxypiperidino)-1-methyl-2-[1H-indole-4,7-dione]prop-β-en-α-ol]: the IC50 was more than 10 µg/mL in series [1] (setting [3]); more than 10 µg/mL in series [1] (Table VI, read-out: ID-50 R-1); more than 10 µg/mL in the series on L1210 cells (setting [4]). In addition, the “ID-50 L1210” value in the series with L1210 cells (Table VI, 2880 min) is more than 10 µg/mL. In addition, in series [2], the “half-wave potential E1.2, wave I” value is given as -430 mV.

In the case of `COC(=O)/C=C/c1c(C(=O)OC)c2c(n1C)C(=O)C=C(O)C2=O` [E.O. 24, Methyl 5-hydroxy-3-methoxycarbonyl-1-methyl-2-[1H-indole-4,7-dione]acrylate], the IC50 in series [1] (Table IA, para-indoloquinone diesters, read-out: ID-50 R-1) is more than 10 µg/mL; in the series with L1210 cells (L1210, 48 h, Table IA, para-indoloquinone diesters, read-out: ID-50 L1210), more than 10 µg/mL. In addition, the “E1/2, halve wave reduction potential” value in series [2] is recorded as -299 mV.

For the compound `Cn1c(/C=C/CO)c(CO)c2c1C(=O)C=C(N1CCOCC1)C2=O` [E.O. 12, 3-Hydroxymethyl-1-methyl-5-morpholino-2-[1H-indole-4,7-dione]prop-β-en-α-ol], the IC50 is more than 10 µg/mL in series [1] (setting [3]); more than 10 µg/mL in series [1] (Table VI, read-out: ID-50 R-1); 3.8 µg/mL (≈ 11.4 µM) in the series on L1210 cells (setting [4]). Moreover, the “half-wave potential E1.2, wave I” value in series [2] is -420 mV.

As for `COC(=O)/C=C/c1c(C(=O)OC)c2c(n1C)C(=O)C(C)=C(N1CC1)C2=O` [E.O. 34, Methyl 5-aziridino-1,6-dimethyl-3-methoxycarbonyl-2-[1H-indole-4,7-dione]acrylate], the IC50 turned out to be 2.8 µg/mL (≈ 7.81 µM) in series [1] (setting [5]) and 2.7 µg/mL (≈ 7.53 µM) in the series with L1210 cells (setting [6]). The “E1/2, halve wave reduction potential” value in series [2] is on record as -239 mV.

In the case of `COC(=O)/C=C/c1c(C(=O)OC)c2c(n1C)C(=O)C=C(N1CC1C)C2=O` (stereo not drawn) [E.O. 28, Methyl 3-methoxycarbonyl-1-methyl-5-propyleneamino-2-[1H-indole-4,7-dione]acrylate], the IC50 in series [1] (setting [5]) was found to be 5.7 µg/mL (≈ 15.9 µM); with L1210 cells (setting [6]), 2.2 µg/mL (≈ 6.14 µM). Besides, in series [2], the “E1/2, halve wave reduction potential” value is -171 mV.
